Test results as given in article PMC12120630, “Nicotianin-I: A Tobacco Floral Nectar Peptide with Anticandidal Activity” (ACS Omega, 2025).
In brackets after ≈: the same amount, converted by molar mass. Several values for one entry are separate records, joined by “and”; a condition that tells them apart may be missing. Equal entries are not always repeated. Residues, ends and D or L forms follow the SMILES beside them.

Experiments:
[1] = system: C. albicans, C. krusei, C. parapsilosis, and C. tropicalis; test: Anticandidal activity, statements for all strains tested; assay type: cell-based, Candida spp.; settings: peptide 200 to 1.56 μM, 24 h, 37 °C
Protocol: (§1) The anticandidal activity was performed against the following species: C. albicans (ATCC 10231), C. krusei (ATCC 22019), C. parapsilosis (ATCC 6258), and C. tropicalis (INCQS 40042). The cell concentration was standardized by OD600 nm to achieve a concentration of 1.5 × 10^3 CFU/mL. The assays were performed using 96-well microplates, mixing the cell suspensions (100 μL) with 100 μL of each peptide serially diluted (200 to 1.56 μM, final concentrations) in 0.15 M NaCl containing 5% DMSO (dimethyl sulfoxide), which was used as a control. The plates were incubated for 24 h at 37 °C under agitation (150 rpm), and the readings were done at 600 nm using a Microtiter Plate Reader. The results are shown as the percentage of growth, considering the OD600 nm of the control as 100%.

[2] = system: C. albicans; settings: cited from earlier work
[3] = system: C. parapsilosis; design: method as in PMID 35456530; settings: cited from earlier work
[4] = system: L929 (murine fibroblast) cells; settings: L929, 200 μM
Protocol: Cell viability of peptide-treated fibroblast cells was tested by the MTT method. Shortly, L929 cells were trypsinized (trypsin–EDTA solution) and seeded into 96-well plates with DMEM (100 μL) at 1 × 10^5 cells/mL for 48 h, followed by the addition of the same volume of serially diluted nicotianin-I (200–1.56 μM) and negative control (0.15 M NaCl). The images were captured with the aid of an optical microscope coupled with phase contrast (AE200, Motic, Barcelona, CT, ES) under 200× magnification. Finally, 10 μL of 5 mg/mL MTT was added to each well, and the mixture was incubated at 37 °C for 3 h. Formazan was solubilized with DMSO (150 μL), and the OD570 nm was measured in a microplate reader.

[5] = system: C. albicans (ATCC 10231); assay type: cell-based, Candida albicans; settings: ATCC 10231, 24 h
Protocol: as §1

[6] = system: C. krusei (ATCC 22019); assay type: cell-based, Candida krusei; settings: ATCC 22019, 24 h
Protocol: as §1

[7] = system: C. parapsilosis (ATCC 6258); assay type: cell-based, Candida parapsilosis; settings: ATCC 6258, 24 h
Protocol: as §1

[8] = system: C. tropicalis (INCQS 40042); assay type: cell-based, Candida tropicalis; settings: INCQS 40042, 24 h
Protocol: as §1

[9] = system: human erythrocyte (type O); settings: 200 μM; 1% human erythrocytes, 1 h, 37 °C, OD414; relative to 0.1% Triton-X-100
Protocol: To assess a possible indicator of cytotoxicity, 150 μL of nicotianin-I, serially diluted with 0.15 M NaCl containing 5% DMSO, was incubated at 37 °C for 1 h with the same volume of 1% human erythrocyte (type O), which was obtained from the Hematology and Hemotherapy Center of Ceará, Brazil. Samples were centrifuged for 5 min at 2500g, and the supernatant was transferred to 96-well microplates. Released hemoglobin content was measured at OD414 nm. 0.1% Triton-X-100 and 0.15 M NaCl containing 5% DMSO were used as the positive and negative controls, respectively.

[10] = system: Zebrafish embryos (AB wild-type strain); test: Fish Embryo Acute Toxicity (FET) test, OECD 236 adapted for 96-well plate; assay type: in vivo
Protocol: Zebrafish embryos (AB wild-type strain) with approximately 1 h postfertilization (hpf) were provided by the Production Unit for Alternative Model Organisms (UniPOM), Federal University of Paraiba (UFPB), João Pessoa, Brazil. A day before the experiment, zebrafish adults (male/female ratio of 2:1) were transferred to a 7 L spawning tank with a bottom mesh and a quick-opening valve for embryo collection. Embryos were collected on the day of the experiment and cultured in the adapted embryonic medium E3 (5.0 mM NaCl, 0.17 mM KCl, 0.33 mM CaCl, and 0.33 mM MgSO4) containing 0.005% methylene blue. Only spawnings with a fertilization rate ≥90% were used. Viable embryos (normal cleavage pattern and without morphological changes) were selected using an inverted light microscope (Televal 31, Zeiss, Germany) at 50× magnification. The experiments were approved by the Ethics Committee on the Use of Animals at UFPB, with authorization documented by protocol no. 4460140920.
The Fish Embryo Acute Toxicity (FET test) test was conducted according to OECD’s guideline number 236 adapted for 96-well plate, as described by Muniz et al. Zebrafish embryos with up to 3 hpf were exposed to five concentrations (6.25, 12.5, 25, 50, and 100 μg/mL) of nicotianin-I, with the last concentration being adopted as a limit concentration. Twenty wells were filled with 0.3 mL of E3 medium and 1 embryo. In the same conditions, E3 medium and 0.15 M NaCl containing 5% DMSO were used as controls.
Embryos showing lethality end points (embryo coagulation, lack of somite formation, nondetachment of the tail bud, and lack of heartbeat) were considered dead. This number was used to determine the survival rate % [number of alive organisms/total number of organisms × 100] per tested concentration. The exposures were under static conditions (without renovation of the exposure solution). Observations were performed using a stereomicroscope at a 50× magnification. After 96 h, the surviving larvae were euthanized with eugenol and properly discarded.

[11] = system: zebrafish embryos; settings: cited from earlier work

Compound: LHSGEGSTCYFFKTNPCCCGTWNCT [Pep3, ornamental tobacco floral nectar peptide […]]
- in vitro antifungal activity (growth inhibition), in words [1]: negligible or no significant inhibition

Compound: C[C@@H]1[C@H](O)[C@@H](C)/C=C/C=C/C=C/C=C/C=C/C=C/C=C/[C@H](O[C@@H]2O[C@H](C)[C@@H](O)[C@H](N)[C@@H]2O)C[C@@H]2O[C@](O)(C[C@@H](O)C[C@@H](O)[C@H](O)CC[C@@H](O)C[C@@H](O)CC(=O)O[C@H]1C)C[C@H](O)[C@H]2C(=O)O [Amphotericin B]
- MIC [2]: 0.25 µg/mL (≈ 0.271 µM)
- MIC [3]: 0.25 µg/mL (≈ 0.271 µM)

Compound: CC(C)[C@H](N)C(=O)N[C@@H](CS)C(=O)N1CCC[C@H]1C(=O)N[C@@H](CS)C(=O)N[C@@H](C)C(=O)N[C@@H](CS)C(=O)N[C@@H](CS)C(=O)N[C@@H](CO)C(=O)N[C@H](C(=O)N1CCC[C@H]1C(=O)N[C@@H](CCCNC(=N)N)C(=O)N[C@@H](CCCNC(=N)N)C(=O)N[C@H](C(=O)O)C(C)C)[C@@H](C)O [Pep1] (H-VCPCACCSTPRRV-OH; N-terminus and C-terminus assumed)
- in vitro antifungal activity (growth inhibition), in words [1]: negligible or no significant inhibition
- reduction of cellular viability (up to) ([4]; MTT, OD570): 80.95%

Compound: CC(C)C[C@H](NC(=O)[C@H](CS)NC(=O)[C@H](Cc1ccc(O)cc1)NC(=O)CNC(=O)[C@H](Cc1c[nH]cn1)NC(=O)[C@H](CCCNC(=N)N)NC(=O)[C@@H](NC(=O)[C@H](CS)NC(=O)[C@H](CO)NC(=O)[C@H](Cc1ccc(O)cc1)NC(=O)[C@H](Cc1c[nH]cn1)NC(=O)[C@@H](N)CCCCN)[C@@H](C)O)C(=O)N[C@@H](C)C(=O)N[C@@H](CS)C(=O)N[C@@H](Cc1ccc(O)cc1)C(=O)N[C@@H](CCCCN)C(=O)N[C@@H](CCCNC(=N)N)C(=O)N[C@@H](Cc1c[nH]c2ccccc12)C(=O)N[C@@H](Cc1ccccc1)C(=O)O [nicotianin-I] (H-KHYSCTRHGYCLACYKRWF-OH)
- IC50 [5]: 80 ± 4.6 µM
- MIC [5]: 120 ± 9.3 µM (≈ 291 µg/mL)
- IC50 [6]: 57 ± 3.7 µM
- MIC [6]: 133 ± 8.6 µM (≈ 322 µg/mL)
- IC50 [7]: 46 ± 2.2 µM
- MIC [7]: 141 ± 7.1 µM (≈ 342 µg/mL)
- IC50 [8]: 24 ± 1.9 µM
- MIC [8]: 86 ± 3.6 µM (≈ 208 µg/mL)
- maximum percentage of hemolysis [9]: 28.1%
- survival rate ([10]; 50 μg/mL (21 μM), 96 h exposure, static, 20 embryos per concentration): 90%
- mortality rate ([10]; 100 μg/mL or 42 μM (highest concentration), as stated in the abstract): 40%
- blood clotting ([10]; 6.25–100 μg/mL, 96 h): n.e. (n.e.: no effect or less than 20% of embryos affected)
- body pigmentation ([10]; 6.25–100 μg/mL, 96 h): n.e. (n.e.: no effect or less than 20% of embryos affected)
- eye malformation ([10]; 6.25–100 μg/mL, 96 h): n.e. ^b (n.e.: no effect or less than 20% of embryos affected)
- granules around the embryo (LOAEL) ([10]; 6.25–100 μg/mL, 96 h): 100 µg/mL
- hatching delay (LOAEL) ([10]; 6.25–100 μg/mL, 96 h): 100 µg/mL
- mouth malformation ([10]; 6.25–100 μg/mL, 96 h): n.e. (n.e.: no effect or less than 20% of embryos affected)
- otolith malformation ([10]; 6.25–100 μg/mL, 96 h): n.e. (n.e.: no effect or less than 20% of embryos affected)
- pericardial edema ([10]; 6.25–100 μg/mL, 96 h): n.e
- spine malformation ([10]; 6.25–100 μg/mL, 96 h): n.e. (n.e.: no effect or less than 20% of embryos affected)
- undersize ([10]; 6.25–100 μg/mL, 96 h): n.e. (n.e.: no effect or less than 20% of embryos affected)
- yolk sac edema ([10]; 6.25–100 μg/mL, 96 h): n.e. (n.e.: no effect or less than 20% of embryos affected)
- lowest observed adverse effect level (LOAEL) ([10]; nonlethal effects: hatching delay, granules around the embryo): 100 µg/mL
- LC50 (mortality) ([10]; zebrafish embryos, 96 h exposure): 131 µg/mL and 131.85 µg/mL
- LC50 ([10]; zebrafish embryos, 96 h exposure, same value given in μM): 54 µM
- cytotoxicity to fibroblasts, in words ([4]; MTT and phase contrast microscopy): no cytotoxicity

Compound: EYCSAKSAKPGVHCRSCALVNMYK [Pep2, ornamental tobacco floral nectar peptide […]]
- in vitro antifungal activity (growth inhibition), in words [1]: negligible or no significant inhibition

Compound: WKCGSTPAPRKYCTCVAKMW [Pep4, ornamental tobacco floral nectar peptide […]]
- in vitro antifungal activity (growth inhibition), in words [1]: negligible or no significant inhibition

Compound: HRFSYMCFVAQVLNKDYCSCCKF [Pep5, ornamental tobacco floral nectar peptide […]]
- in vitro antifungal activity (growth inhibition), in words [1]: negligible or no significant inhibition

Compound: C[C@@H]1[C@H](O)[C@@H](C)/C=C/C=C/CC/C=C/C=C/C=C/C=C/C(O[C@H]2O[C@H](C)[C@@H](O)[C@H](N)[C@@H]2O)CC2O[C@](O)(CC(O)C(O)CCC(O)CC(O)CC(O)CC(=O)O[C@H]1C)CC(O)C2C(=O)O (some centres unmarked) [nystatin]
- MIC [2]: 1 µg/mL (≈ 1.08 µM)
- MIC [3]: 1 µg/mL (≈ 1.08 µM)
- LC50 ([11]; zebrafish embryos at 120 h postfertilization): 6.2 µg/mL (≈ 6.69 µM)
- exposure concentration causing cardiac abnormalities (pericardial edema, reduced heartbeat) ([11]; zebrafish embryos, Nys 3 × MIC, AmB 3.2 × MIC): 3 µg/mL
